From US10722501B2 (BAYER AKTIENGESELLSCHAFT, priority 2016, dated 2020) come the findings set out here.

For the assay, the target named is T1, recombinant full-length human prolyl endopeptidase (PREP) (Homo sapiens, UniProt P48147).
T1 construct: To recombinant full-length human prolyl endopeptidase (PREP, R&D-Systems, 4308-SE); purchased R&D-Systems 4308-SE
T1 sequence (P48147 1-710): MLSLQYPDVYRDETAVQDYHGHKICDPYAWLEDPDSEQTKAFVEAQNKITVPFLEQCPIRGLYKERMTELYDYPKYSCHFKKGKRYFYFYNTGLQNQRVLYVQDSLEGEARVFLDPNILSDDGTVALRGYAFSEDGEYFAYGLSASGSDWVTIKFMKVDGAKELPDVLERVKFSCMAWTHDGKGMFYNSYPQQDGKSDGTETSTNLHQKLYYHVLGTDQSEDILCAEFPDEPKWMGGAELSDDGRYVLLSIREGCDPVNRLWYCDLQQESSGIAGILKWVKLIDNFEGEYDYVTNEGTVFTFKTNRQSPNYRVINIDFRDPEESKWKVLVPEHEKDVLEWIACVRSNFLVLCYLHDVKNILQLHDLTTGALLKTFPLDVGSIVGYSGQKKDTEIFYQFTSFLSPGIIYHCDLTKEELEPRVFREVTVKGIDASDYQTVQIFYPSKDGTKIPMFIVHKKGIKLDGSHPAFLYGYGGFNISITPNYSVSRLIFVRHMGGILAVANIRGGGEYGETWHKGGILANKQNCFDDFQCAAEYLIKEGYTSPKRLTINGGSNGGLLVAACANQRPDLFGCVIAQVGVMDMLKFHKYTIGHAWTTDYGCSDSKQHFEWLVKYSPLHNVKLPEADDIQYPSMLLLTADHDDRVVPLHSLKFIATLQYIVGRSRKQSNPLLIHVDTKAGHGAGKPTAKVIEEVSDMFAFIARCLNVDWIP
In words: Biochemical human prolyl endopeptidase (PREP) assay with fluorescently labelled substrate. The settings on record: substrate Z-Gly-Pro-AMC 50 μM, 32° C., 60 min; some as mean values from multiple independent determinations. An outline of the steps:
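0.4 nM (final, example) recombinant PREP in pH 7.5 Tris buffer with EDTA, GSH, BSA and Brij-35; compounds at 1 nM to 30 μM. Reaction started with 50 μM Z-Gly-Pro-AMC and followed by fluorescence (ex 360/em 465 nm) at 32° C for 60 min. IC50 interpolated from percent activity based on initial slopes.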
For orientation: IC50 means the concentration at which inhibition is half-maximal. With `O=C(C1CC(C(F)(F)F)Cc2nn(Cc3ccc(Cl)nc3)c(=O)n21)N1CC(F)C1` (single isomer, unassigned) [Example 240, (5RS,7RS)-2-[(6-Chloropyridin-3-yl)methyl]-5-[(3-fluoroazetidin-1-yl)carbonyl]-7-(trifluoromethyl)-5,6,7,8-tetrahydro[1,2,4]triazolo[4,3-a]pyridin-3(2H)-one], the IC50 was determined as 4.2 nM.

With `O=C([C@@H]1CCCc2nn(Cc3ccc(F)c(Cl)c3)c(=O)n21)N1CC[C@H](F)C1` [Example 454, (5S)-2-(3-Chloro-4-fluorobenzyl)-5-{[(3S)-3-fluoropyrrolidin-1-yl]carbonyl}-5,6,7,8-tetrahydro[1,2,4]triazolo[4,3-a]pyridin-3(2H)-one], the IC50 was 0.063 nM.

With `Cc1ccc(Cn2nc3n(c2=O)C(C(=O)N2CCC(=O)C2)CCC3)cc1` (single isomer, unassigned) [Example 119, (5RS)-2-(4-Methylbenzyl)-5-[(3-oxopyrrolidin-1-yl)carbonyl]-5,6,7,8-tetrahydro[1,2,4]triazolo[4,3-a]pyridin-3(2H)-one], the IC50 came out at 1.4 nM.

Turning to `O=C([C@@H]1CC=Cc2nn(Cc3ccc(C(F)(F)F)nc3)c(=O)n21)N1CC[C@H](F)C1` [Example 276, (5S)-5-{[(3S)-3-Fluoropyrrolidin-1-yl]carbonyl}-2-{[6-(trifluoromethyl)pyridin-3-yl]methyl}-5,6-dihydro[1,2,4]triazolo[4,3-a]pyridin-3(2H)-one], the IC50 worked out at 3.6 nM.

Take `COc1ccc(Cn2nc3n(c2=O)C(C(=O)N2CCCC2)CCC3)cn1` (racemic) [Example 92, (5RS)-2-[(6-Methoxypyridin-3-yl)methyl]-5-(pyrrolidin-1-ylcarbonyl)-5,6,7,8-tetrahydro[1,2,4]triazolo[4,3-a]pyridin-3(2H)-one]: the IC50 amounted to 3 nM.

As to `O=C([C@@H]1CCCc2nn(Cc3ccc(Cl)nc3)c(=O)n21)N1CC[C@H](F)C1` [Example 422, (5S)-2-[(6-Chloropyridin-3-yl)methyl]-5-{[(3S)-3-fluoropyrrolidin-1-yl]carbonyl}-5,6,7,8-tetrahydro[1,2,4]triazolo[4,3-a]pyridin-3(2H)-one], the IC50 came out at 0.63 nM.

On to `O=C(C1C(C(F)(F)F)CCc2nn(Cc3ccnc(C(F)(F)F)c3F)c(=O)n21)N1CC[C@H](F)C1` (single isomer, unassigned) [Example 281], for which the IC50 was found to be 2.2 nM.

In the case of `Cc1ccc(Cn2nc3n(c2=O)C(C(=O)N2CC(O)C2)CCC3)cc1` (single isomer, unassigned) [Example 121, (5RS)-5-[(3-Hydroxyazetidin-1-yl)carbonyl]-2-(4-methylbenzyl)-5,6,7,8-tetrahydro[1,2,4]triazolo[4,3-a]pyridin-3(2H)-one], the IC50 came out at 4.3 nM.

As to `O=C([C@@H]1CCCc2nn(Cc3ccc(C(F)(F)F)nc3)c(=O)n21)N1CC(F)C(F)C1` (single isomer, unassigned) [Example 553], the IC50 worked out at 575 nM.

Regarding `CC1Cc2nn(Cc3ccc(F)c(Cl)c3)c(=O)n2C(C(=O)N2CC(F)C2)C1` (racemic) [Example 340, (5RS,7RS)-2-(3-Chloro-4-fluorobenzyl)-5-[(3-fluoroazetidin-1-yl)carbonyl]-7-methyl-5,6,7,8-tetrahydro[1,2,4]triazolo[4,3-a]pyridin-3(2H)-one], the 50% inhibitory concentration (IC50) worked out at 0.48 nM.

Regarding `O=C([C@@H]1CCC(O)c2nn(Cc3ccc(C(F)(F)F)nc3)c(=O)n21)N1CC[C@H](F)C1` (mixture of isomers) [Example 275, (5S,8RS)-5-{[(3S)-3-Fluoropyrrolidin-1-yl]carbonyl}-8-hydroxy-2-{[6-(trifluoromethyl)pyridin-3-yl]methyl}-5,6,7,8-tetrahydro[1,2,4]triazolo[4,3-a]pyridin-3(2H)-one], the IC50 was 1.15 nM.

Regarding `O=C([C@@H]1CCC(F)(F)c2nn(Cc3ccc(Cl)cn3)c(=O)n21)N1CC[C@H](F)C1` [Example 555, (5S)-2-[(5-Chloropyridin-2-yl)methyl]-8,8-difluoro-5-{[(3S)-3-fluoropyrrolidin-1-yl]carbonyl}-5,6,7,8-tetrahydro[1,2,4]triazolo[4,3-a]pyridin-3(2H)-one], the IC50 was determined as 0.54 nM.

Regarding `O=C(C1C(C(F)(F)F)CCc2nn(Cc3ccc(Cl)cn3)c(=O)n21)N1C[C@@H](F)[C@@H](F)C1` (single isomer, unassigned) [Example 301], the IC50 came to 19.5 nM.

As for `Cn1c(Cn2nc3n(c2=O)C(C(=O)N2CCCC2)CCC3)nc2ccccc21` (racemic) [Example 62, (5RS)-2-[(1-Methyl-1H-benzimidazol-2-yl)methyl]-5-(pyrrolidin-1-ylcarbonyl)-5,6,7,8-tetrahydro[1,2,4]triazolo[4,3-a]pyridin-3(2H)-one], the IC50 was 2 nM.

For `O=C(C1CC(C(F)(F)F)Cc2nn(Cc3ccnc(C(F)(F)F)c3F)c(=O)n21)N1CC(F)C1` (single isomer, unassigned) [Example 253, (5RS,7RS)-5-[(3-Fluoroazetidin-1-yl)carbonyl]-2-{[3-fluoro-2-(trifluoromethyl)pyridin-4-yl]methyl}-7-(trifluoromethyl)-5,6,7,8-tetrahydro[1,2,4]triazolo[4,3-a]pyridin-3(2H)-one], the IC50 stood at 120 nM.

Regarding `O=C([C@@H]1CCCc2nn(Cc3ncc(C(F)(F)F)cc3Cl)c(=O)n21)N1CC[C@@H](F)C1` [Example 401, (5S)-2-{[3-Chloro-5-(trifluoromethyl)pyridin-2-yl]methyl}-5-{[(3R)-3-fluoropyrrolidin-1-yl]carbonyl}-5,6,7,8-tetrahydro[1,2,4]triazolo[4,3-a]pyridin-3(2H)-one], the IC50 turned out to be 3.4 nM.

As to `O=C(C1CCCc2nn(Cc3ccc(OCC(F)(F)F)nc3)c(=O)n21)N1CCCC1` (racemic) [Example 153, (5RS)-5-(Pyrrolidin-1-ylcarbonyl)-2-{[6-(2,2,2-trifluoroethoxy)pyridin-3-yl]methyl}-5,6,7,8-tetrahydro[1,2,4]triazolo[4,3-a]pyridin-3(2H)-one], the half-inhibitory concentration (IC50) is 36 nM.

For the compound `O=C([C@@H]1CCCc2nn(Cc3cnc(C(F)(F)F)c(Cl)c3)c(=O)n21)N1CCCC1` [Example 545, (5S)-2-{[5-Chloro-6-(trifluoromethyl)pyridin-3-yl]methyl}-5-(pyrrolidin-1-ylcarbonyl)-5,6,7,8-tetrahydro[1,2,4]triazolo[4,3-a]pyridin-3(2H)-one], the IC50 came out at 0.67 nM.

Consider `O=C(C1CCCc2nn(Cc3ncc(C(F)(F)F)cc3Cl)c(=O)n21)N1CCCC1` (racemic) [Example 68, (5RS)-2-{[3-Chloro-5-(trifluoromethyl)pyridin-2-yl]methyl}-5-(pyrrolidin-1-ylcarbonyl)-5,6,7,8-tetrahydro[1,2,4]triazolo[4,3-a]pyridin-3(2H)-one], for which the IC50 is 3.9 nM.

For `Cc1cc(Cn2nc3n(c2=O)C(C(=O)N2CCCC2)CCC3)ccn1` (racemic) [Example 15, (5RS)-2-[(2-Methylpyridin-4-yl)methyl]-5-(pyrrolidin-1-ylcarbonyl)-5,6,7,8-tetrahydro[1,2,4]triazolo[4,3-a]pyridin-3(2H)-one], the IC50 is 8.4 nM.

As to `O=C(C1CCc2nn(Cc3ccnc(C(F)(F)F)c3F)c(=O)n21)N1CC[C@H](F)C1` (single isomer, unassigned) [Example 180], the IC50 is 3.2 nM.

For the compound `O=C([C@@H]1CCCc2nn(Cc3ccc(C(F)(F)F)nc3)c(=O)n21)N1CC[C@H](O)C1` [Example 425, (5S)-5-{[(3S)-3-Hydroxypyrrolidin-1-yl]carbonyl}-2-{[6-(trifluoromethyl)pyridin-3-yl]methyl}-5,6,7,8-tetrahydro[1,2,4]triazolo[4,3-a]pyridin-3(2H)-one], the IC50 came to 35 nM.

As for `O=C([C@@H]1CCCc2nn(Cc3ccc(F)c(F)c3)c(=O)n21)N1CC(F)C1` [Example 469, (5S)-2-(3,4-Difluorobenzyl)-5-[(3-fluoroazetidin-1-yl)carbonyl]-5,6,7,8-tetrahydro[1,2,4]triazolo[4,3-a]pyridin-3(2H)-one], the IC50 worked out at 0.795 nM.

For the compound `O=C(C1C(C(F)(F)F)CCc2nn(Cc3ccc(Cl)cn3)c(=O)n21)N1C[C@@H](F)[C@@H](F)C1` (mixture of isomers) [Example 300, (5RS,6RS)-2-[(5-Chloropyridin-2-yl)methyl]-5-{[(3R,4S)-3,4-difluoropyrrolidin-1-yl]carbonyl}-6-(trifluoromethyl)-5,6,7,8-tetrahydro[1,2,4]triazolo[4,3-a]pyridin-3(2H)-one], the IC50 came out at 19 nM.

`O=C(C1CC(C(F)(F)F)Cc2nn(Cc3ccnc(C(F)(F)F)c3F)c(=O)n21)N1C[C@@H](F)[C@@H](F)C1` (single isomer, unassigned) [Example 262]: the IC50 was determined as 790 nM.
